According to ChEMBL document CHEMBL1201862, “PubChem BioAssay data set” (2004):
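Assay format: 96-well plates, 48-hour exposure. GI50 = concentration required for 50% inhibition of growth.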 Active and inactive are the calls of the source. Cut-off read from the data, not from the text of the source: active = GI50 up to about 1.1 µM and inactive = higher.

Tests used:
Assay in all cases: NCI tumour cell line growth inhibition, 48 h
[1] = test system: 786-0
[2] = test system: A549
[3] = test system: ACHN
[4] = test system: CAKI-1
[5] = test system: CCRF-CEM
[6] = test system: COLO 205
[7] = test system: DLD-1
[8] = test system: DMS-114
[9] = test system: DMS-273
[10] = test system: EKVX
[11] = test system: HCC 2998
[12] = test system: HCT-15
[13] = test system: HL-60
[14] = test system: HOP-18
[15] = test system: HOP-62
[16] = test system: HOP-92
[17] = test system: HT-29
[18] = test system: IGROV-1
[19] = test system: K562
[20] = test system: KM-20L2
[21] = test system: KM12
[22] = test system: LOX IMVI
[23] = test system: LXFL 529
[24] = test system: M14
[25] = test system: M19-MEL
[26] = test system: MOLT-4
[27] = test system: Malme-3M
[28] = test system: NCI-H23
[29] = test system: NCI-H460
[30] = test system: NCI-H522
[31] = test system: OVCAR-3
[32] = test system: OVCAR-4
[33] = test system: OVCAR-5
[34] = test system: OVCAR-8
[35] = test system: RPMI-8226
[36] = test system: RXF 393
[37] = test system: SF-268
[38] = test system: SF-295
[39] = test system: SF-539
[40] = test system: SK-MEL-28
[41] = test system: SK-MEL-2
[42] = test system: SK-MEL-5
[43] = test system: SK-OV-3
[44] = test system: SN12C
[45] = test system: SNB-19
[46] = test system: SNB-75
[47] = test system: SW-620
[48] = test system: TK-10
[49] = test system: U-251
[50] = test system: UACC-257
[51] = test system: UACC-62
[52] = test system: UO-31
[53] = test system: HCT-116
[54] = test system: NCI-H226
[55] = test system: SNB-78
[56] = test system: SR

In the case of Cc1nc2c(ccc3ncccc32)[nH]1, the GI50 [1] is reported as > 100 µM (inactive), the GI50 [2] is reported as > 100 µM (inactive) and the GI50 [3] is reported as > 100 µM (inactive). The GI50 [4] was > 100 µM (inactive), the GI50 [5] was > 100 µM (inactive) and the GI50 [6] was > 100 µM (inactive). The GI50 [7] was > 100 µM (inactive), the GI50 [8] was > 100 µM (inactive) and the GI50 [9] was > 100 µM (inactive). For the same molecule, the GI50 [10] was > 100 µM (inactive), the GI50 [11] was > 100 µM (inactive) and the GI50 [12] was over 100 µM. The GI50 [13] was > 100 µM (inactive), the GI50 [14] was > 100 µM (inactive) and the GI50 [15] was > 100 µM (inactive). The GI50 [16] was > 100 µM (inactive), the GI50 [17] was > 100 µM (inactive) and the GI50 [18] was > 100 µM (inactive). For the same molecule, the GI50 [19] was > 100 µM (inactive), the GI50 [20] was > 100 µM (inactive) and the GI50 [21] was > 100 µM (inactive). For the same molecule, the GI50 [22] was > 100 µM (inactive), the GI50 [23] was > 100 µM (inactive) and the GI50 [24] was > 100 µM (inactive). The GI50 [25] was > 100 µM (inactive), the GI50 [26] was > 100 µM (inactive) and the GI50 [27] was > 100 µM (inactive). The GI50 [28] was > 100 µM (inactive), the GI50 [29] was > 100 µM (inactive) and the GI50 [30] was > 100 µM (inactive). For the same molecule, the GI50 [31] was > 100 µM (inactive), the GI50 [32] was > 100 µM (inactive) and the GI50 [33] was > 100 µM (inactive). For the same molecule, the GI50 [34] was > 100 µM (inactive), the GI50 [35] was > 100 µM (inactive) and the GI50 [36] was > 100 µM (inactive). For the same molecule, the GI50 [37] was > 100 µM (inactive), the GI50 [38] was > 100 µM (inactive) and the GI50 [39] was > 100 µM (inactive). The GI50 [40] was > 100 µM (inactive), the GI50 [41] was > 100 µM (inactive) and the GI50 [42] was > 100 µM (inactive). The GI50 [43] was > 100 µM (inactive), the GI50 [44] was > 100 µM (inactive) and the GI50 [45] was > 100 µM (inactive). The GI50 [46] was > 100 µM (inactive), the GI50 [47] was > 100 µM (inactive) and the GI50 [48] was > 100 µM (inactive). For the same molecule, the GI50 [49] was > 100 µM (inactive), the GI50 [50] was > 100 µM (inactive) and the GI50 [51] was > 100 µM (inactive). For the same molecule, the GI50 [52] was > 100 µM (inactive).
With CCOC(=O)N[C@@H]1C2CC(=O)C(O2)[C@@H]1OC (stereo not given in full) the GI50 [1] was > 100 µM (inactive), the GI50 [2] was > 100 µM (inactive) and the GI50 [3] was > 100 µM (inactive). The GI50 [4] was > 100 µM (inactive), the GI50 [5] was > 100 µM (inactive) and the GI50 [6] was > 100 µM (inactive). The GI50 [7] was > 100 µM (inactive), the GI50 [10] was > 100 µM (inactive) and the GI50 [11] was > 100 µM (inactive). The GI50 [53] was > 100 µM (inactive), the GI50 [12] was over 100 µM and the GI50 [13] was > 100 µM (inactive). The GI50 [14] was > 100 µM (inactive), the GI50 [15] was > 100 µM (inactive) and the GI50 [16] was > 100 µM (inactive). For the same molecule, the GI50 [17] was > 100 µM (inactive), the GI50 [18] was > 100 µM (inactive) and the GI50 [19] was > 100 µM (inactive). The GI50 [20] was > 100 µM (inactive), the GI50 [21] was > 100 µM (inactive) and the GI50 [22] was > 100 µM (inactive). For the same molecule, the GI50 [24] was > 100 µM (inactive), the GI50 [25] was > 100 µM (inactive) and the GI50 [26] was > 100 µM (inactive). For the same molecule, the GI50 [27] was > 100 µM (inactive), the GI50 [54] was > 100 µM (inactive) and the GI50 [28] was > 100 µM (inactive). For the same molecule, the GI50 [29] was > 100 µM (inactive), the GI50 [30] was > 100 µM (inactive) and the GI50 [31] was > 100 µM (inactive). For the same molecule, the GI50 [32] was > 100 µM (inactive), the GI50 [33] was > 100 µM (inactive) and the GI50 [34] was > 100 µM (inactive). For the same molecule, the GI50 [35] was > 100 µM (inactive), the GI50 [36] was > 100 µM (inactive) and the GI50 [37] was > 100 µM (inactive). For the same molecule, the GI50 [38] was > 100 µM (inactive), the GI50 [39] was > 100 µM (inactive) and the GI50 [40] was 7.08 µM (inactive). For the same molecule, the GI50 [41] was > 100 µM (inactive), the GI50 [42] was > 100 µM (inactive) and the GI50 [43] was > 100 µM (inactive). For the same molecule, the GI50 [44] was > 100 µM (inactive), the GI50 [45] was > 100 µM (inactive) and the GI50 [46] was > 100 µM (inactive). The GI50 [55] was > 100 µM (inactive), the GI50 [56] was > 100 µM (inactive) and the GI50 [47] was > 100 µM (inactive). For the same molecule, the GI50 [48] was > 100 µM (inactive), the GI50 [49] was > 100 µM (inactive) and the GI50 [50] was > 100 µM (inactive). For the same molecule, the GI50 [51] was > 100 µM (inactive) and the GI50 [52] was > 100 µM (inactive).
